Source: patent EP3705478B1, “TRIAZINE COMPOUND AND PHARMACEUTICALLY ACCEPTABLE SALT THEREOF” (Shenzhen Forward Pharmaceuticals Co., Ltd., priority 2017, dated 2018)
pIC50: −log10 of the molar value. Where two headings read alike, the source gives them in different places.

Legend:
A431 (wild-type EGFR) = assay: Test 2: Proliferation Test of Wild-type EGFR Cells (Cell Titer-Glo); assay type: cell-based; settings: Homo sapiens, read-out: IC50 value, Test 2
Experimental: The human […] cell line A431 (wild-type EGFR) is obtained from the American Type Culture Collection. […] cells are cultured in RPMI1640 medium containing 10% fetal bovine serum and 2 mM glutamine. Cells are grown in a humidified incubator with 5% CO2 at 37°C.
(§1) The number of viable cells in the culture is determined according to the protocol described in Cell Titer-Glo Luminescent cell Viability Assay (Promega catalog number: # G7570) of Promega company. 90 µl of cells (8000 cells/well) are cultured in growth medium in a Corning 96-well plate with black transparent bottom, culturing in a humidified incubator with 5% CO2 at 37°C overnight. The compound serially diluted in 100% DMSO is added to the cells by pipette, culturing the cells for another 72 hours. 100 µl of the mixed Cell Titer-Glo reagent is added to the cells in the 96-well culture plate to lyse the cells, mixing gently. Subsequently, the […] is detected on the Envision microplate detector to obtain data of the compound. Finally, the data is input into a suitable software package (such as Prism) for curve fitting analysis.

[1] = tested on: NCI-H1975 (L858R/T790M double mutant EGFR); assay: Test 3: Proliferation Test of L858R/T790M EGFR (double mutant) cells (Cell Titer-Glo); assay type: cell-based, human; settings: for pIC50: Homo sapiens, NCI-H1975 cells, 72 hours; for Ratio of IC50 value of Test 2 to that of Test 3: selectivity: wild-type EGFR cells vs L858R/T790M EGFR (double mutant) cells
Experimental: (§2) NCI-H1975 cells are cultured in RPMI1640 medium containing 10% fetal bovine serum and 2 mM glutamine. Cells are grown in a humidified incubator with 5% CO2 at 37°C.
as §1

[2] = molecular target: T1, L858R/T790M EGFR (double mutant) (Homo sapiens, UniProt P00533, L858R/T790M); assay: Test 1: Phosphorylation Test of L858R/T790M EGFR (double mutant) Cells (phospho-EGFR ELISA); assay type: cell-based; settings: NCI-H1975 cells, p-EGFR in cell lysate, compound incubation 2 hours
T1 construct: The detection of phosphorylated p-EGFR of endogenous cells in cell lysate; host or cells: NCI-H1975
T1 sequence (P00533 25-1210 T790M/L858R): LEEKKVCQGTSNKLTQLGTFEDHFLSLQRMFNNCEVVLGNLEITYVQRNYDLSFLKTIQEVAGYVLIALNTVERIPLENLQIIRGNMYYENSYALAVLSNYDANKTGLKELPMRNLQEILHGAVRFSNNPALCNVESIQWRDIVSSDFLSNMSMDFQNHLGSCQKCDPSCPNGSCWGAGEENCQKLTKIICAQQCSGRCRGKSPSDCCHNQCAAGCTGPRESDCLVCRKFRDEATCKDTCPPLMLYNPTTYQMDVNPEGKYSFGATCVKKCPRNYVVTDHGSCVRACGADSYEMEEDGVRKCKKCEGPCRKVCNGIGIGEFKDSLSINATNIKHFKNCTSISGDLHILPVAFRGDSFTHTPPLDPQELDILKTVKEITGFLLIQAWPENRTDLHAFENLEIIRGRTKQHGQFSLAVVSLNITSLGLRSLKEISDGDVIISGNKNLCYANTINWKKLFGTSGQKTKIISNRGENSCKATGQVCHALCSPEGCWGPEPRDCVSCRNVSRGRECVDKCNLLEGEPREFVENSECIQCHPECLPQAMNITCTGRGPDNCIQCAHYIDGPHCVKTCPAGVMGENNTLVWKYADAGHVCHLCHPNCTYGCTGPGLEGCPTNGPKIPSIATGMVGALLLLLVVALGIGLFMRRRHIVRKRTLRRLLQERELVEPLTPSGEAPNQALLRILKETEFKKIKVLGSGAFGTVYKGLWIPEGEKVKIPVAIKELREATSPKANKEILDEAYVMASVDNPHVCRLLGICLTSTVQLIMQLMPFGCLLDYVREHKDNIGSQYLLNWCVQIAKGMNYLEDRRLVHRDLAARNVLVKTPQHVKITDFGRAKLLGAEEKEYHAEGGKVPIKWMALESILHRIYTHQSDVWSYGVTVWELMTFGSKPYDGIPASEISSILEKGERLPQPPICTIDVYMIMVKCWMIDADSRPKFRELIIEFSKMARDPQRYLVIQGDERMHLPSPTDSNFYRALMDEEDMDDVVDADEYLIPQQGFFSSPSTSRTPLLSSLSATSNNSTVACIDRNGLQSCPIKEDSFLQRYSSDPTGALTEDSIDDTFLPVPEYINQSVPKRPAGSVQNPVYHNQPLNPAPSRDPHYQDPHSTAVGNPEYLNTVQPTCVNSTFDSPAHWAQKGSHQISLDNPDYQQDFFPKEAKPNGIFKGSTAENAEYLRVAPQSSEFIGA
Experimental: as §2
The detection of phosphorylated p-EGFR of endogenous cells in cell lysate is performed according to the protocol described in the DuoSet IC Human Phospho-EGFR ELISA (R&D Systems catalog number: # DYC1095) of R&D Systems Company. 90 µl of cells (8000 cells/well) are cultured in growth medium in a Corning 96-well plate with black transparent bottom, after culturing in a humidified incubator with 5% CO2 at 37°C overnight, the cell culture medium is replaced with RPMI1640 medium containing 1% fetal bovine serum and 2 mM glutamine to culture continuously. The compound serially diluted in 100% DMSO is added to the cells by pipette, and after gently mixing the medium, the cells are incubated for another 2 hours. 100 µl of 1X lysis buffer is added to each well. Greiner high-binding 96-well plates are coated with capture antibody, and then blocked with 3% BSA. After removing the blocking solution, 100 µl of lysate is transferred to a Greiner high-binding 96-well plate, then incubating for 2 hours. After gently mixing and washing the culture plate with PBS, 100 µl of detection antibody is added, then incubating for 2 hours. […] 100 µl of stop solution is added to the culture plate, and the absorbance of each well at 450 nm wavelength is measured. Finally, the data is input into a suitable software package (such as Prism) for curve fitting analysis.

[3] = tested on: Ba/F3-CAT-EGFR (wild-type EGFR) cells; assay: Test 4: Proliferation Test of BalF3-CAT-EGFR cells (Cell Titer-Glo); assay type: cell-based; settings: 72 hours
Text: (§3) BalF3-CAT-EGFR cell viability detection is based on the detection technology developed by CellTiter-Glo®. BalF3 cells are transformed by overexpressing the intracellular kinase region of wild-type EGFR to construct a CAT-EGFR tool cell strain. This cell strain lives depending on the kinase activity of EGFR, if the wild-type EGFR is inhibited by a small molecule compound, the cell strain will die. Therefore, the specificity and activity of EGFR small molecules on wild-type EGFR may be evaluated by observing the effect of EGFR small molecules on cell viability.
Ba/F3-CAT-EGFR (wild-type EGFR) cells are cultured in RPMI1640 medium containing 10% fetal bovine serum and 2 mM glutamine. Cells are grown in a humidified incubator with 5% CO2 at 37°C.
as §1, with “100” for “90”, “(3000” for “(8000”

[4] = Test 6: Test of Plasma Protein Binding Rate (equilibrium dialysis), human plasma; assay type: in vitro ADME; settings: equilibrium dialysis at 37°C for 4 hours, read-out: % Unbound of human plasma sample in Test 6
Experimental: (§4) The test of plasma protein binding rate is performed by using the 96-well equilibrium dialysis device from HTDialysis Company. The human plasma samples or mouse plasma samples with a concentration of 2 µM for the test and control compounds are performed equilibrium dialysis at 37°C for 4 hours so as to conduct the protein binding study. 150 µL of plasma sample with the test compound is added to the administration end of each dialysis well, and 150 µL of blank dialysis buffer is added to the receiving end corresponding to the dialysis well. The dialysis plate is then placed in a humidified incubator with 5% CO2 to incubate at 37°C for 4 hours. After dialysis, 50 µL of the dialyzed buffer sample and the dialyzed plasma sample are transferred to a new 96-well plate (sample receiving plate). The corresponding volume of corresponding blank plasma or buffer is added to the sample. All samples are analyzed by LC/MS/MS after protein precipitation. The concentration of the sample is expressed as the ratio of the peak area of the compound to the internal standard substance (semi-quantitative). Finally, the % Unbound, % Bound, and % Recovery of the compound are calculated according to the formula.

[5] = Test 6: Test of Plasma Protein Binding Rate (equilibrium dialysis), mouse plasma; assay type: in vitro ADME; settings: equilibrium dialysis at 37°C for 4 hours, read-out: % Unbound of mouse plasma sample in Test 6
Experimental: as §4

[6] = tested on: BalF3-DTM-EGFR (mutant EGFR) cells; assay: Test 5: Proliferation Test of Ba/F3-DTM-EGFR cells (Cell Titer-Glo); assay type: cell-based; settings: for Inhibitory selectivity of the compound, Ratio of IC50 value of Test 4 to IC50 value of Test 5: Ba/F3-CAT-EGFR vs Ba/F3-DTM-EGFR cells; for pIC50: Ba/F3-DTM-EGFR cells (T790M mutation and Exon19-deficient EGFR), 72 hours
Experimental: as §3, with “Ba/F3-DTM-EGFR” for “BalF3-CAT-EGFR”, “BalF3 cells are transformed by overexpressing the intracellular kinase region of wild-type EGFR to construct a CAT-EGFR tool cell strain.” left out, “mutant” for “wild-type”
BalF3-DTM-EGFR (mutant EGFR) cells are cultured in RPMI1640 medium containing 10% fetal bovine serum and 2 mM glutamine. Cells are grown in a humidified incubator with 5% CO2 at 37°C.
as §1, with “100” for “90”, “(3000” for “(8000”

[7] = A-431, wild-type EGFR cells, 72 hours

SMILES: C=CC(=O)Nc1cc(Nc2ncnc(-n3ccc4ncccc43)n2)c(OC)cc1N(C)CCN(C)C [Compound 6, N-(5-((4-(1H-pyrrolo[3,2-b]pyridin-1-yl)-1,3,5-triazin-2-yl)amino)-2-((2-(dimethylamino)ethyl)(methyl)amino)-4-methoxyphenyl)acrylamide]
- pIC50 (A431 (wild-type EGFR); [7]): 6.24
- pIC50 [1]: 8.52
- Ratio of IC50 value of Test 2 to that of Test 3 [1]: 193
- pIC50 [2]: 7.82

SMILES: C=CC(=O)Nc1cc(Nc2ncnc(N3CC(C)(C)c4ncccc43)n2)c(OC)cc1N(C)CCN(C)C [Compound 11, N-(5-((4-(3,3-dimethyl-2,3-dihydro-1H-pyrrolo[3,2-b]pyridin-1-yl)-1,3,5-triazin-2-yl)amino)-2-((2-(dimethylamino)ethyl)(methyl)amino)-4-methoxyphenyl)acrylamide]
- pIC50 [3]: < 5.00
- fraction unbound at 4 h, 2 µM [4]: 0.107
- pIC50 [2]: 7.95
- fraction unbound at 4 h, 2 µM [5]: 0.077
- Inhibitory selectivity of the compound, Ratio of IC50 value of Test 4 to IC50 value of Test 5 [6]: >2941.18
- pIC50 [6]: 8.47

SMILES: C=CC(=O)Nc1cc(Nc2ncnc(-n3cc(C)c4cnccc43)n2)c(OC)cc1N(C)CCN(C)C [Compound 18, N-(2-((2-(dimethylamino)ethyl)(methyl)amino)-4-methoxy-5-((4-(3-methyl-1H-pyrrolo[3,2-c)pyridin-1-yl)-1,3,5-triazin-2-yl)amino)phenyl)acrylamide]
- pIC50 [3]: < 5.00
- Inhibitory selectivity of the compound, Ratio of IC50 value of Test 4 to IC50 value of Test 5 [6]: > 1923.08
- pIC50 [6]: 8.28

SMILES: C=CC(=O)Nc1cc(Nc2ncnc(-n3nc(C)c4ccc(F)cc43)n2)c(OC)cc1N(C)CCN(C)C [Compound 20, N-(2-((2-(dimethylamino)ethyl)(methyl)amino)-5-((4-(6-fluoro-3-methyl-1H-indazol-1-yl)-1,3 ,5-triazin-2-yl)amino)-4-methoxyphenyl)acrylamide]
- pIC50 [3]: < 5.00
- Inhibitory selectivity of the compound, Ratio of IC50 value of Test 4 to IC50 value of Test 5 [6]: > 1851.85
- pIC50 [6]: 8.27

SMILES: C=CC(=O)Nc1cc(Nc2ncnc(-c3cnc4c(C)cccn34)n2)c(OC)cc1N(C)CCN(C)C [Compound 26, N-(2-((2-(dimethylamino)ethyl)(methyl)amino)-4-methoxy-5-((4-(8-methylimidazolo[1,2-a]pyridin-3-yl)-1,3,5-triazin-2-yl)amino)phenyl)acrylamide]
- pIC50 [3]: < 5.00
- pIC50 (A431 (wild-type EGFR); [7]): 6.14
- pIC50 [1]: 8.40
- Ratio of IC50 value of Test 2 to that of Test 3 [1]: 179.5
- pIC50 [2]: 7.92
- Inhibitory selectivity of the compound, Ratio of IC50 value of Test 4 to IC50 value of Test 5 [6]: >2702.70
- pIC50 [6]: 8.43

SMILES: C=CC(=O)Nc1cc(Nc2ncnc(-c3cnc4c(F)cccn34)n2)c(OC)cc1N(C)CCN(C)C [Compound 27, N-(2-((2-(dimethylamino)ethyl)(methyl)amino)-5-((4-(8-fluoroimidazolo[1,2-a]pyridin-3-yl)-1 ,3,5-triazin-2-yl)amino)-4-methoxyphenyl)acrylamide]
- pIC50 [3]: < 5.00
- pIC50 (A431 (wild-type EGFR); [7]): 6.05
- pIC50 [1]: 8.30
- Ratio of IC50 value of Test 2 to that of Test 3 [1]: 176.6
- pIC50 [2]: 7.93
- Inhibitory selectivity of the compound, Ratio of IC50 value of Test 4 to IC50 value of Test 5 [6]: >3125.00
- pIC50 [6]: 8.49

SMILES: C=CC(=O)Nc1cc(Nc2ncnc(-c3cnc4c(C(F)(F)F)cccn34)n2)c(OC)cc1N(C)CCN(C)C [Compound 28, N-(2-((2-(dimethylamino)ethyl)(methyl)amino)-4-methoxy-5-((4-(8-(trifluoromethyl)imidazolo[1,2-a]pyridin-3-yl)-1,3,5-triazin-2-yl)amino)phenyl)acrylamide]
- pIC50 [3]: < 5.00
- pIC50 (A431 (wild-type EGFR); [7]): 6.12
- pIC50 [1]: 8.40
- Ratio of IC50 value of Test 2 to that of Test 3 [1]: 189.5
- pIC50 [2]: 7.94
- Inhibitory selectivity of the compound, Ratio of IC50 value of Test 4 to IC50 value of Test 5 [6]: >2500.00
- pIC50 [6]: 8.40

SMILES: C=CC(=O)Nc1cc(Nc2ncnc(-n3nc(F)c4ccccc43)n2)c(OC)cc1N(C)CCN(C)C [Compound 29, N-(2-((2-(dimethylamino)ethyl)(methyl)amino)-5-((4-(3-fluoro-1H-indazol-1-yl)-1,3,5-triazin-2-yl)amino)-4-methoxyphenyl)acrylamide]
- pIC50 [3]: < 5.00
- pIC50 (A431 (wild-type EGFR); [7]): 6.03
- pIC50 [1]: 8.40
- Ratio of IC50 value of Test 2 to that of Test 3 [1]: 235.3
- pIC50 [2]: 7.97
- Inhibitory selectivity of the compound, Ratio of IC50 value of Test 4 to IC50 value of Test 5 [6]: >2222.22
- pIC50 [6]: 8.35

SMILES: C=CC(=O)Nc1cc(Nc2nccc(-c3cn(C)c4ccccc34)n2)c(OC)cc1N(C)CCN(C)C [Osimertinib (AZD9291), Osimertinib, reference compound]
- pIC50 [3]: 5.51
- fraction unbound at 4 h, 2 µM [4]: 0.025
- fraction unbound at 4 h, 2 µM [5]: 0.005
- pIC50 [6]: 8.15
